{"source": "patent US20220041681A1", "about": "(MEDIMMUNE LIMITED, priority 2016, published 2022)", "assay": "Phase 1 single-ascending dose study", "conditions": "human, plasma, subcutaneous, 300 μg"}
{"smiles": "CCCCCCCCCCCCCCCC(=O)N[C@@H](CCC(=O)NCCCC[C@H](NC(=O)[C@H](CC(=O)O)NC(=O)[C@H](CO)NC(=O)C(NC(=O)[C@H](Cc1ccccc1)NC(=O)C(NC(=O)CNC(=O)[C@H](CCC(N)=O)NC(=O)[C@H](CO)NC(=O)[C@@H](N)Cc1cnc[nH]1)[C@@H](C)O)[C@@H](C)O)C(=O)N[C@@H](CO)C(=O)N[C@@H](CCC(=O)O)C(=O)N[C@@H](Cc1ccc(O)cc1)C(=O)N[C@@H](CC(C)C)C(=O)N[C@@H](CC(=O)O)C(=O)N[C@@H](CO)C(=O)N[C@@H](CCC(=O)O)C(=O)N[C@@H](CCCNC(=N)N)C(=O)N[C@@H](C)C(=O)N[C@@H](CCCNC(=N)N)C(=O)N[C@@H](CC(=O)O)C(=O)N[C@@H](Cc1ccccc1)C(=O)N[C@H](C(=O)N[C@@H](C)C(=O)N[C@@H](Cc1c[nH]c2ccccc12)C(=O)N[C@@H](CC(C)C)C(=O)N[C@@H](CCC(=O)O)C(=O)N[C@@H](C)C(=O)NCC(=O)NCC(=O)O)C(C)C)C(=O)O", "note": "(stereo partly shown) [Peptide G933]", "values": [{"measurement": "AUC(0-t)", "result": 364, "unit": "ng·h/mL"}]}
